According to patent US10799456B2, “Multiple drug lipid nanoparticle composition and related methods for extended drug levels in blood and lymph tissue” (priority 2015, dated 2020):

How the values were obtained:
[1] = Drug incorporation efficiency into lipid-drug nanoparticles (dialysis); assay type: physicochemical; conditions: for Incorporation efficiency (%): DSPC:DSPE-mPEG2000 8:2
Method: J Acquir Immune Defic Syndr. […] Journal of pharmaceutical sciences. […] The AAPS journal. […] Residual solvent was removed overnight by vacuum desiccation. The dried lipid-drug film was then rehydrated with 0.9% NaCl containing 20 mM sodium bicarbonate (pH 7.4). The lipid-drug samples were allowed to hydrate at 60° C. for 2 h. Then samples were sonicated (laboratory scale) or homogenized (preclinical scale) to achieve a homogenous suspension.
The incorporation efficiency was calculated as the ratio of the amount of incorporated drug over the total amount of drug loaded multiplied by 100%.

[2] = Tables 20 and 21; cited from earlier work
[3] = % Drug association to particles by assembly method; assay type: physicochemical
Text: Select one or two drugs hydrophilic and water soluble (Class 2) drugs listed in Table 19 (for example, tenofovir and/or emtricitabine and/or lamivudine). • 3. Select the excipient combination (for example, 9 parts DSPC and 1 part PEG-DSPE). • 4. Prepare a single-phase miscible solvent that enables full solubilization of the chosen water-insoluble Class 1 drugs and water soluble Class 2 drugs plus the excipients from step 3. Examples include CHCl3:Methanol:Water (65:35:4); CHCl3:Ethanol:Water (65:35:4); CHCl3:Propanol:Water (65:35:4); and CHCl3:Hexanol:Water (65:35:4). • 5. The components in Steps 1, 2 and 3 are solubilized with the miscible solvent in step 4. • 6. The drugs (steps 1 and 2) as well as excipients (step 3) and the miscible solvent (step 4) are dried under reduced pressure with assistance of a combination of heat, reduced pressure and/or aerosolization to provide for uniformity and efficiency of drying. • 7. The dehydrated composition is heated above gel-to-liquid phase transition temperature of the excipient mixture (e.g., 50° C.). • 8. A buffered saline solution is prepared and the temperature is equilibrated to the same temperature as dehydrated composition. • 9. The buffered saline solution and dehydrated composition are gradually combined and maintained at the defined (e.g., 50° C.) for 3 hr. • 10. The resulting hydrated multi-drug lipid nanoparticles are size-reduced by sheering or forcing through small orifice or pressurized filter apparatus while maintaining at the defined temperature (in liquid phase of lipidic excipients).

[4] = Octanol-buffer distribution coefficient (shake-flask); assay type: physicochemical; conditions: room temperature
Method: The octanol-buffer drug distribution coefficient at room temperature was determined by a small-scale, shake-flask method described by Dittert L W, et al. Phase Solubility Technique in Studying the Formation of Complex Salts of Triamterene. Journal of pharmaceutical sciences. […] Briefly, phosphate-buffered saline (PBS) at pH 3, 5, and 7.4 was used as the aqueous phase. […] The mixture was centrifuged at 14,000 rpm (18,078 g) (Beckman Coulter™ Microfuge® 18 centrifuge, Beckman Coulter Inc., Brea, Calif.) to separate octanol and the aqueous phase. The drug concentration in the two phases was determined with high-performance liquid chromatography tandem mass spectrometry (HPLC/MS/MS). The distribution coefficient was calculated as the ratio of the drug concentration in the octanol phase to the drug concentration in the aqueous phase. Triplicate samples were used at each pH.

[5] = DPH fluorescence anisotropy, lipid phase transition temperature; assay type: physicochemical
Method: To evaluate the change in membrane fluidity due to drug insertion into the lipid membrane, 0.1% 1,6-diphenyl-1,3,5-hexatriene (DPH) was used as an intra-membrane probe.^18,20 Briefly, to incorporate DPH into the lipid membrane, 2 μL of 2 mM DPH in tetrahydrofuran was added to the lipid nanoparticle suspension with or without drug. The final preparation was incubated at 60° C. (above the 55° C. DSPC phase transition temperature) for 30 min, then slowly cooled to room temperature over 15 min. […] A water-jacketed cuvette holder connected to a circulating water bath (PolyScience, model 1162, Niles, Ill.) was used to control the temperature within the cuvette, which was measured by a digital thermometer. The cuvette was allowed to equilibrate for 10 min before taking each temperature reading. The fluorescence intensities, both parallel and perpendicular to the emission light, were measured continuously with a F-4500 fluorescence spectrometer (Hitachi, Minato-ku, Tokyo, Japan) set at kex/em=360/430 nm; both excitation and emission slits were 5 nm. Fluorescence anisotropy response, r, was calculated by the equation: […]
The fluorescence anisotropy response versus temperature curve was generated by non-linear regression using SigmaPlot software (11.0 version, Systat Software, Inc., San Jose, Calif.). […]

[6] = Particle size by photon correlation spectroscopy; assay type: physicochemical
Method: The mean particle size of lipid-drug nanoparticles and liposome control was determined by photon correlation spectroscopy (PCS) using a NICOMP™ 380ZLS instrument (NICOMP Particle Sizing Systems, Santa Barbara, Calif.). […] Samples were diluted with the same buffer to an identical final volume to analyze concentration effects. The light scattering data were analyzed based on intensity-weight NICOMP size distribution and expressed as a mean±SD.
Briefly, lipids and protease inhibitors were dissolved in chloroform:ethanol (3:1 v/v) and PMPA was added from a stock solution of 30 mg/ml in aqueous 150 mM NaHCO3. Solvent was removed by rotary evaporation and vacuum desiccation. The dry film was rehydrated to 200 mM lipid in 0.4% NaCl with 20 mM NaHCO3 buffer at 60° C. Particle size was reduced at 60° C. by bath sonication (laboratory scale) or high-pressure homogenization using an Emulsiflex-05 (Avestin, Ottawa, Canada) (clinical scale). LNPs were maintained at 60° C. to anneal for 30 min prior to cooling and stored at 4° C. Particle size was determined by photon correlation spectroscopy using a NICOMP 380 ZLS (Particle Sizing Systems, Santa Barbara, Calif.).

## Darunavir [Darunavir (DRV)]
[1]; lipid:drug 5:1 mol/mol
  Incorporation efficiency (%): 88.1 ± 3.8%
[1]; lipid:drug 5:1 mol/mol, listed as DRV
  Incorporation efficiency (%): 88.1%
[1]; lipid:drug 8:1 mol/mol
  Incorporation efficiency (%): 94.4 ± 2.8%
[1]; lipid:drug 8:1 mol/mol, listed as DRV
  Incorporation efficiency (%): 94.4%
[1]; lipid:drug 20:1 mol/mol
  Incorporation efficiency (%): 96.6 ± 4.8%
[1]; lipid:drug 20:1 mol/mol, listed as DRV
  Incorporation efficiency (%): 96.6%
[1]; prepared at 0.5 mM lipid
  drug incorporation efficiency: 58%
[1]; prepared at 5 mM lipid
  drug incorporation efficiency: 95%
[2]
  Hydrophobicity (Log P): 1.8
[3]
  % Drug Association to Particles, LNPs from mixture of dual solvent method: 97%
[4]; pH 3, octanol/PBS
  Log D (measured): 2.98
[4]; pH 5, octanol/PBS
  Log D (measured): 2.80
[4]; pH 7.4, octanol/PBS
  Log D (measured): 2.84
[5]; lipid-to-drug 8:1, vs control LNPs
  reduction of TC: 1.6 °C
[5]; lipid-to-drug molar ratio 8:1
  phase transition temperature (TC): 53.3 °C
[6]; lipid:drug 5:1 mol/mol
  Particle size (nm): 33.6 ± 3.1 nm
[6]; lipid:drug 8:1 mol/mol
  Particle size (nm): 35.6 ± 3.9 nm
[6]; lipid:drug 20:1 mol/mol
  Particle size (nm): 35.6 ± 3.7 nm
